ChEMBL document CHEMBL3507680, “University of Dundee, Gates Library screen for HepG2 cell viability”

test: Human HepG2 cell viability assay in 384 well format; format: toxicity, cell-based; design: dose 125 nL, time 70.5 hour; cytotoxicity at 70.5 h: concentration not given beside the values; settings: HepG2 cells, read-out: Inhibition

SMILES | cytotoxicity at 70.5 h
Cc1nn(C)c2cnn(C(C)C(=O)NCc3cccnc3)c12 (stereo unspecified) | -5.87%
Cc1cccnc1NC(=O)C(C)Cn1nc(C(F)(F)F)cc1C (stereo unspecified) | -4.08%
CCc1noc(C2CCCCN2C(=O)c2nnc3ccccc3n2)n1 (stereo unspecified) | 17.3%
CCc1noc(C2CCCCN2C(=O)c2ccn(C3CCCC3)n2)n1 (stereo unspecified) | 31%
CCn1nc(C)c2ncnc(NCC(=O)N3CCOCC3)c21 | -11.2%
CCn1nc(C)c2ncnc(NCCCN3CCOCC3)c21 | 6.44%
Cc1nn(C)c2c(N3CCN(C(=O)NC4CCCCC4)CC3)ncnc12 | 4.87%
Cc1nc(N2CCN(C(=O)C3CC3)CC2)c2c(n1)c(C)nn2C | 0.516%
CCC(=O)Nc1nnc(CCOc2cccc(OC)c2)s1 | 6.47%
CCOCCCNC(=O)c1cc(C(C)C)nc(N2CCCCCC2)n1 | 26.5%
CCN(CC)CCNC(=O)c1cc(C(C)C)nc(N2CCCC2)n1 | 56.7%
CCOCCCNC(=O)c1cc(C)nc(N2CCCC2)n1 | 21.7%
Cc1ccc(CNC(=O)Cn2ncc3c2c(C)nn3C)cc1 | -0.794%
Cc1nn(C)c2cnn(CC(=O)NCCc3ccccc3)c12 | -6.1%
O=C1CC(c2ccc(F)c(F)c2)c2snc(C(=O)O)c2N1 (stereo unspecified) | 8.54%
Cc1ccc2cnn(CCC(=O)NCc3c(C)nn(C)c3C)c2c1 | -6.87%
CCc1noc(C2CCN(C(=O)CCn3nc(C)cc3C)CC2)n1 | -12.9%
CC1CCN(C(=O)c2ccn(COc3ccc(F)cc3)n2)CC1 | -6.36%
CCCn1ccc(C(=O)N2CCC(C)CC2)n1 | -11.6%
Cc1nc(NCCc2ccc(Cl)cc2)cc(C(=O)N2CCCCC2)n1 | 13.8%
Cc1nc(NCc2ccc(C)o2)cc(C(=O)N2CCOCC2)n1 | -9.84%
O=C(COCc1nc(-c2ccncc2)no1)N1CCCC1 | -4.88%
O=C(COCc1nc(-c2ccncc2)no1)NC1CCCCC1 | -2.53%
COc1ccc(OC)c(C(C)Nc2nc3c(C)nn(C)c3c(=O)n2C)c1 (stereo unspecified) | 12.4%

SMILES | cytotoxicity at 70.5 h
CCCNC(=O)C(C)n1cc(Br)cn1 (stereo unspecified) | -11.8%
COCCNC(=O)C(C)n1cc(Br)cn1 (stereo unspecified) | -15.1%
CCn1nc(C)c2nc(C(C)C)nc(N3CCCCC3)c21 | -11.3%
CSCc1cccc(S(=O)(=O)NCCCn2ccnc2)c1 | -5.18%
CCN1CCN(S(=O)(=O)c2cc(Cl)c(Cl)cc2C)CC1 | -2.4%
Cc1nccn1CC(=O)N1CC(Cc2nccc3ccn(C)c23)C1 | -9.67%
CCn1cc(CN2C[C@@H]3CCCN3C[C@H]2CCSC)cn1 | -7.68%
Cc1cc(CCC(N)=O)cc(C2CCCN2Cc2ccnn2C)n1 (stereo unspecified) | -6.78%
Cc1nc(C2CN(C)CCO2)cc(N2CCC(C(N)=O)CC2)n1 (stereo unspecified) | -10.6%
Cc1nc(Nc2ccccn2)cc(C2CCCN2C2CCOCC2)n1 (stereo unspecified) | -10.7%
CCC(=O)N1CCC(c2cc(Nc3ncccn3)nc(C)n2)C1 (stereo unspecified) | -10.9%
CC(=O)N1CCC(N2CC(Cc3nccc4ccn(C)c34)C2)CC1 | -6.03%
Cc1cc(N2CCCC2c2cc(Nc3cnccn3)nc(C)n2)ncn1 (stereo unspecified) | -11.4%
CC(=O)N1CCCC(c2ccc(C(N)=O)cn2)C1 (stereo unspecified) | -8.88%
CC(C)S(=O)(=O)N1CCC(c2[nH]ncc2S(C)(=O)=O)C1 (stereo unspecified) | -2.31%
CN(C)C(=O)CN1CCCC(CCCc2ccccn2)(C(N)=O)C1 (stereo unspecified) | 10.1%
Cc1cccc(CN2CCCC2(C(N)=O)c2cnccn2)n1 (stereo unspecified) | 19%
CNCC(=O)N1CCCC(c2ccnc(Nc3cnccn3)n2)C1 (stereo unspecified) | -9.17%
CN1CCC(Cc2cc(Nc3ccccn3)ncn2)CC1 | 10.1%
Cc1c(C2CCCN(C(=O)c3cccnc3)C2)n2c(nc1=O)CCC2 (stereo unspecified) | -8.11%
CNc1nccnc1C1CCN(C(C)C)CC1 | 12.4%
CN(C)C(=O)CN1CCCC1c1nccnc1Nc1ccccn1 (stereo unspecified) | -8.51%
CNc1cc(N2CCC(O)(CNC(=O)c3ccc(C)nc3)C2)ncn1 (stereo unspecified) | -6.58%
CN(C)c1cncc(C2CCN(CC(N)=O)CC2)n1 | -0.457%

SMILES | cytotoxicity at 70.5 h
O=C(Cn1ccnc1)N1C[C@@H]2CC[C@H](Oc3ccccc3F)[C@@H]2C1 | 10.9%
Cc1noc(C)c1-c1cncc(CC2CCN(C(=O)c3cc[nH]n3)C2)n1 (stereo unspecified) | -4.86%
Cc1nnsc1C(=O)N1CCCC(n2nnc3cc(F)ccc32)C1 (stereo unspecified) | -5.58%
O=C(c1n[nH]cc1Cl)N1CCCC(n2nnc3cc(F)ccc32)C1 (stereo unspecified) | -5.16%
Cc1nn(C)cc1CN1CCc2nc(-c3cccnc3)nc(O)c2C1 | -3.92%
CCn1ncc(CN2CCc3nc(-c4cccnc4)nc(O)c3C2)c1C | 9.93%
Cc1ccc(O)c(CN2CCc3nc(-c4cccnc4)nc(O)c3C2)c1 | -5.78%
Cc1cc(-c2cnc(NC3CC3)nc2-c2ccoc2C)on1 | -5.1%
Cc1cc(-c2cnc(NC3CC3)nc2-c2ccoc2)on1 | 2.18%
Cc1ncc(CN2CCc3c(nc(-c4ccccn4)[nH]c3=O)C2)n1C | -8.75%
Cc1n[nH]c(C)c1-c1nccnc1CC1CCN(S(C)(=O)=O)C1 (stereo unspecified) | -7.83%
Cc1n[nH]c(C)c1-c1nccnc1CC1CCCN(C)C1 (stereo unspecified) | -7.42%
CN(C)c1cncc(C2CCN(CC3(O)CCCCC3)CC2)n1 | 25.1%
CC(=O)N1CCCC1c1cccc(NCc2ccccc2F)n1 (stereo unspecified) | -1.09%
O=C(C1CCCC1)N1CCOC(c2nc(-c3ncccn3)no2)C1 (stereo unspecified) | -4.9%
O=C(C1CCCC1)N1CCC(c2ccnc(Nc3cnccn3)n2)C1 (stereo unspecified) | 15%
CC(C)(N)C(=O)N1CCCC(c2cncc(Oc3cccnc3)n2)C1 (stereo unspecified) | -3.9%
Cc1ccc(-c2cccc(CC3(C(=O)O)CCOCC3)c2)c(C)c1 | -5.38%
CN(C)CCn1c([C@H]2CCCO2)cc2cccnc21 | -2.03%
Cc1ccc2c(c1)CN(C(=O)c1cccs1)C(CN(C)C)CO2 (stereo unspecified) | -2.45%
OC1(Cn2ccc3ncccc32)CCN(Cc2cccnc2)CC1 | -2.24%
CCn1ncc(CN2CCC(O)(Cn3ccc4ncccc43)CC2)c1C | -1.63%
CC(C)C(=O)NC1CCCc2nc(N3CCOCC3)ncc21 (stereo unspecified) | -0.959%
O=C(NC1CCCc2nc(N3CCOCC3)ncc21)C1CCCCC1 (stereo unspecified) | 13.8%

SMILES | cytotoxicity at 70.5 h
Cc1ccc(=O)n(CC2(O)CCN(Cc3ccoc3)CC2)n1 | -3.06%
O=C(NC1CCCc2nc(N3CCCCC3)ncc21)C1CCCC1 (stereo unspecified) | -4.53%
Cc1ccccc1-c1cc(CC2(C(=O)O)CCOCC2)on1 | -6.86%
O=C(c1cccs1)N1CCCC(c2cc(C(F)F)n3ncnc3n2)C1 (stereo unspecified) | 0.957%
O=C(O)C1(Cc2cc(-c3ccc(F)cc3)no2)CCOCC1 | 8.42%
OCC1CCCN(Cc2c(C3CCCC3)[nH]c3ncccc23)C1 (stereo unspecified) | 13.9%
COc1ccccc1CNc1ncc(-c2cc(C)no2)c(C(C)C)n1 | -9.02%
CC(=O)NC1CCN(C(=O)Nc2ccc(SC(F)F)cc2)CC1 | -4.73%
O=C(Nc1ccc(-c2csnn2)cc1)N1CCC(N2CCCC2)C1 (stereo unspecified) | -14.2%
CCCC(C)(C)NC(=O)CCN1CCOC1=O | 0.72%
CC(C)COC(=O)N1CCN(C(=O)c2ccc3nccn3c2)CC1 | 30.9%
COc1cccc(CC(C)NC(=O)c2ccc(CNC(C)=O)cc2)c1 (stereo unspecified) | -2.82%
CC(C)Cc1cc(C(=O)N2CCCN(c3ncccn3)CC2)[nH]n1 | -1.63%
CC(C)CCC(=O)N1CCN(C(=O)c2ccc3nccn3c2)CC1 | 15.2%
Cc1nccn1-c1ccc(CNS(=O)(=O)N2CCCC(C)C2)cn1 (stereo unspecified) | -4.59%
Cc1nccn1-c1ccc(CNS(=O)(=O)N2CCC(C)CC2)cn1 | 25.9%
CC1CN(C(=O)c2nccnc2N)c2ccc(F)cc2O1 (stereo unspecified) | 1.2%
Cc1ccc2cccc(C(=O)NCC3CCN(C(C)C)C3)c2n1 (stereo unspecified) | 12%
COc1cccc(CC(C)NC(=O)NCc2ccn(C)c2)c1 (stereo unspecified) | 0.709%
O=C(CCc1ccccn1)NC1CCN(c2cccc(Cl)c2)C1 (stereo unspecified) | 39.6%
CCOCC1CCN(C(=O)Nc2ccc(-c3csnn3)cc2)C1 (stereo unspecified) | -11.9%
Cc1ccc(CC(=O)NC2CCN(c3cccc(Cl)c3)C2)cn1 (stereo unspecified) | 22.6%
O=C(c1cnc(NCc2sccc2Br)c(Cl)c1)N1CCCCC1 | -9.35%
CCNC(=O)NC(C)(C)C(=O)NCCc1csc2ccccc12 | 2.01%

SMILES | cytotoxicity at 70.5 h
COc1cccc(CC(C)NC(=O)NCCc2cccnc2)c1 (stereo unspecified) | -8.55%
O=C(Cc1cccc(O)c1)NC1CCN(c2cccc(Cl)c2)C1 (stereo unspecified) | -3.87%
O=C(NCCN1CCCCCC1)c1cccc(Cl)c1Cl | 1.51%
Cc1nc(CNCc2ccc(N3CCN(C)CC3)nc2)cs1 | 16.7%
COc1ccc(CNC(=O)c2ccc(=O)n(C)c2)cc1C | -9.61%
CC(C)OCCC1CCCCN1S(N)(=O)=O (stereo unspecified) | 10.9%
COc1ccc(Cl)cc1CS(=O)(=O)CC(=O)NC(C)CCC(C)C (stereo unspecified) | -11.8%
Cc1ccc(N2N=C(C(=O)N(C)Cc3ccco3)NCC2=O)cc1 | 4.87%
COc1ccc(C(O)CNC(=O)Cn2ccc(=O)n(C)c2=O)cc1 (stereo unspecified) | -5.99%
Cc1cc(CCC(=O)Nc2nncs2)nc(C2CCCN2)n1 (stereo unspecified) | 1.25%
O=C(NCCn1nc(C2CCNC2)c2cccnc21)C1CC1 (stereo unspecified) | -1.28%
O=C(NCCn1nc(C2CCNC2)c2cccnc21)C1CCC1 (stereo unspecified) | 2.22%
COCC(=O)N1CCCC(c2cc(C(F)F)n3ncnc3n2)C1 (stereo unspecified) | -2.53%
c1cnc2c(c1)cc([C@@H]1CCCO1)n2CCN1CCCCC1 | 0.422%
c1cnc2[nH]c(C3CCCNC3)c(CN3CCCOCC3)c2c1 (stereo unspecified) | -5.16%
CNC(=O)C1(CCCc2ccncc2)CCN1 (stereo unspecified) | -9.29%
COc1ccc(CN(Cc2c[nH]cn2)CC2CCCO2)c(OC)c1 (stereo unspecified) | -3.26%
COc1ccc(CN(Cc2cncn2C)CC2CCCO2)cc1 (stereo unspecified) | -7.47%
COc1cccc(CN2C[C@@H]3CC[C@@](O)(c4ccccn4)[C@@H]3C2)c1OC | 12.8%
Cc1nc(Nc2cnccn2)cc(C2CCN(CCO)C2)n1 (stereo unspecified) | -9.95%
